Results published in patent publication US20100317671A1, “XANTHINE-BASED CYCLIC GMP-ENHANCING RHO-KINASE INHIBITOR INHIBITS PHYSIOLOGICAL ACTIVITIES OF LUNG EPITHELIAL CELL LINE” (KAOHSIUNG MEDICAL UNIVERSITY, priority 2008, published 2010).

Legend:
[1] = Monocrotaline (MCT)-induced pulmonary arterial hypertension, PABP; format: in vivo, male Wistar rats; settings: MCT-treated rats
Procedure: The rats administered MCT (60 mg/kg) are caused pulmonary artery hypertension on day 21 after the intraperitoneal injection. The KMUP-1HCl salt (2.5 mg/kg), Simvastatin (2.5 mg/kg), KMUP-1-nicotinic acid complex (2.5 mg/kg), KMUP-1-citric acid complex (2.5 mg/kg), KMUP-1-Simvastatinic Acid complex (2.5 mg/kg) and KMUP-1-γ-polyglutamic acid complex (2.5 mg/kg) orally administered, or the KMUP-1-PGI2 complex (0.1 mM) inhaled every day may inhibit the pulmonary arterial blood pressure (PABP) in MCT-treated male Wistar rats.

[2] = test system: TGF-β; test: TGF-β expression, bleomycin-induced lung fibrosis (EIA); format: in vivo, mice; settings: BM 60 mg/kg; drug 2.5 mg/kg oral
Procedure: The increased amount of the collagen synthesis and the macrophage generation in alveolus may facilitate the formulation of TGF-β, and the expression of TGF-β is deeming as a biomarker of the lung fibrosis. KMUP-1HCl salt (1, 2.5 and 5 mg/kg), the Simvastatin (5 mg/kg), the KMUP-1-nicotinic acid complex (2.5 mg/kg), the KMUP-1-Simvastatinic acid complex (2.5 mg/kg) and KMUP-1-γ-polyglutamic acid complex (2.5 mg/kg) are orally administered to the mice for inhibiting the lung fibrosis induced by TGF-β expression in tracheal lavage solution that resulted from 60 mg/kg BM inhalation (Table 6). The state of the TGF-β expression in the lavage is measured by the enzyme immunoassay (EIA).

[3] = test system: MMP-9; test: Immunostaining of lung sections, OVA mice; format: in vivo; settings: OVA-sensitized and -challenged mice
[4] = test system: NOx; test: NOx levels in BALF of OVA-sensitized and -challenged mice (Griess reagent); format: in vivo; settings: 24 hrs after last OVA challenge; basal 65.4, OVA 162.8 μM
[5] = test system: total cells, lymphocytes and eosinophils in BALF; test: Cellular components in BALF, OVA-challenged mice; format: in vivo; settings: 24 hrs after last OVA challenge; nebulization
Description: Inflammation and remodeling of the bronchioles is associated with infiltration of blood-born lymphocytes, eosinophils and neutrophils, migrating into bronchial lumen. During the course of allergic disease, structural changes occur in the airways, referred to as remodeling. However, treatment with KMUP-1 prevents the migration of blood born cells into bronchiole.

[6] = test system: PKG; test: Western blotting of lung tissue, OVA-sensitized and -challenged mice; format: in vivo; settings: nebulization, 28-day experiment
[7] = test system: eNOS; test: Short-term nebulization without OVA sensitization, lung tissue; format: in vivo, mice; settings: 1.0~2.5 mM, 30 mins nebulization, no OVA
Procedure: (§1) Short-term KMUP-1 (5 mM, 30 min) nebulization and pretreatment with L-NAME (12 mM, […]) are accomplished using a previously described method. Aerosols were generated by ultrasonic nebulizer from day 21 to 27. Mice were sacrificed on day 28. Three different experiments were performed on cohorts of 7-14 mice per experimental condition.
(§2) Please refer to FIGS. 22(B) and 23(B), the changes of eNOS and MMP-9 expression by KMUP-1 (2.5 mM, 30 mins) are reversed by L-NAME-pretreatment (12 mM, 30 mins).

[8] = test system: MMP-9; test: as above; format: in vivo, mice; settings: 1.0~2.5 mM, 30 mins nebulization, no OVA
Procedure: as §1, §2

Row | SMILES | Pulmonary arterial blood pressure (PABP), in words ([1]; 2.5 mg/kg orally every day) | PABP ([1]; 2.5 mg/kg/day p.o.) [mmHg] | The changing amount of TGF-β in the lung tissue [2] [%] | MMP-9 positive cells [3] | Levels of NOx (nitrate+nitrite) in BALF [4] [µM] | Increase in eosinophils in BALF [5] | Increase in lymphocytes in BALF [5] | Increase in total cells in BALF [5] | PKG expression reduced by OVA sensitization [6] | eNOS expression in lung tissues [7] | MMP-9 expression in lung tissues [8]
1 | CCC(C)(C)C(=O)O[C@H]1C[C@@H](C)C=C2C=C[C@H](C)[C@H](CC[C@@H](O)C[C@@H](O)CC(=O)O)[C@H]21.Cn1c(=O)c2c(ncn2CCN2CCN(c3ccccc3Cl)CC2)n(C)c1=O [KMUP-5] | inhibit | 12 ± 1.3 | 45 ± 4.5 | – | – | – | – | – | – | – | –
2 | Cn1c(=O)c2c(ncn2CCN2CCN(c3ccccc3Cl)CC2)n(C)c1=O [KMUP-1, 7-[2-[4-(2-chlorobenzene)piperazinyl]ethyl]-1,3-dimethylxanthine] | – | – | – | hardly detected | 86.3 ± 17.3 | significantly reduces | significantly reduces | significantly reduces | prevented | dose-dependently increased | decreased
